The results in this text go back to PubChem BioAssay (NCI).

Assay in all cases: inhibition of tumour cell growth, NCI panel, 48 h
Assay [1] has as its system MDA-MB-435.
The test system of assay [2] is OVCAR-8 ovarian.
The subject of assay [3] is BT-549 breast.
Assay [4] deals with SK-MEL-2 melanoma.
The test system of assay [5] is UO-31 renal.
Assay [6] relates to MCF7 breast.
In assay [7] the test system is SNB-19 CNS.
The test system of assay [8] is OVCAR-3 ovarian.
Assay [9] deals with RXF 393 renal.
In assay [10] the test system is RPMI-8226 leukemia.

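Five compound concentrations were applied to cells in 96-well plates for 48 hours; endpoints were derived by simple linear interpolation of the resulting dose-response curve. At the GI50, growth is halved. TGI: concentration producing complete growth inhibition.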

Take `CC1(O)CC23CC(O)C4(O)C(CC(O)C4(C)C)C(C)(O)C2CCC1C3O` (stereo not given): the TGI in assay [1], in [2], in assay [3], in [4], in [5] and in assay [6] was greater than 100 µM throughout. In addition, the TGI in assay [7] was greater than 100 µM.

As to `COc1cc(-c2cc(OC)c(OC)c3ccc(Br)cc23)c2cc(Br)ccc2c1OC`, the TGI was 46.5 µM in assay [8]; 46.1 µM in [1]; 56 µM in assay [4]; 73.7 µM in assay [5]; 41 µM in assay [9]; 85.7 µM in [6]. The TGI in [10] is 51.7 µM; in assay [7], greater than 100 µM.

As to `CC(C)C(Nc1c2ccccc2[n+](C)c2ccccc12)C(=O)O` (stereo not given), the TGI in [8], in assay [2], in assay [4], in assay [5], in [9] and in assay [10] was greater than 100 µM throughout. In addition, in assay [7], the TGI was greater than 100 µM.

`CN(C)CCCNC(=O)N/N=C/c1ccccn1`: the TGI in assay [2], in assay [5], in [9], in assay [6] and in assay [10] was greater than 10 µM in each case.

Consider `CCOC(=O)/C(=C/c1cn(C(C)=O)c2ccccc12)P(=O)(OC)OC`, for which the TGI in assay [8] was 64.8 µM; in [1] it was greater than 100 µM; in assay [2] it was greater than 100 µM; in [4], greater than 100 µM; in [6] it was greater than 100 µM; in [10], 50.7 µM.

Turning to `CN1CCN(Cc2ccc(C(=S)Nc3ccccc3)s2)CC1`, the TGI in [8] was greater than 100 µM; in [1], greater than 100 µM; in assay [2], greater than 100 µM; in assay [3], 76.3 µM; in [4], greater than 100 µM; in assay [5], greater than 100 µM. The TGI in assay [6], in [10] and in assay [7] was greater than 100 µM each time.

As to `N#Cc1nc(-c2ccsc2)oc1N`, the TGI in [1], in [2], in assay [4], in assay [5], in assay [9] and in assay [6] was greater than 100 µM in each case. Further, the TGI in [10] and in assay [7] was greater than 100 µM throughout.

Consider `CCCCCCCCCCCCCCCC[N+](C)(C)CCl`, for which the TGI was 14.6 µM in assay [8]; greater than 39.2 µM in assay [1]; 7.43 µM in assay [2]; 7.87 µM in [3]; 49.8 µM in [4]; 27.9 µM in assay [5]. Moreover, the TGI in assay [6] is greater than 28.9 µM; in assay [10], 5.16 µM; in assay [7], 3.81 µM.

For `Cc1cc(C)c(C2=NO[C@@H]3[C@H]2C(=O)C=C2N(Cc4ccccc4)CCO[C@@]23O)c(C)c1`, the TGI in assay [8], in [2], in [4], in assay [5], in assay [9] and in assay [6] was greater than 100 µM in each case. The TGI in assay [10] and in [7] was greater than 100 µM each time.

With `COc1ccc(/C=C2\N=C3N(Cc4ccccc4)C=C(N)N3C2=O)cc1`, the TGI in [8], in [1], in [2], in [3], in assay [4] and in assay [5] was greater than 100 µM throughout. Moreover, the results for the TGI in assay [9], in assay [6] and in [7] were greater than 100 µM, greater than 100 µM and 48.2 µM, respectively.

Consider `COC(=O)c1c2c(cc3c1CC1(Cc4cc5c(cc4C1)CCCC5)C3)CCCC2`, for which the TGI is greater than 100 µM in assay [8]; greater than 100 µM in assay [1]; greater than 100 µM in assay [2]; greater than 100 µM in [4]; greater than 100 µM in assay [5]; 67.3 µM in [9]. The TGI in assay [6] and in assay [10] was greater than 100 µM throughout.

As to `Nc1ncnc2c1ncn2C1C(O)C=C(CO)C1O` (stereo not given), the TGI in assay [8], in assay [2], in assay [4], in [5], in [6] and in assay [10] was greater than 625 µM throughout. Further, in assay [7], the TGI was greater than 625 µM.

Take `Cc1cc(C)n(C(=CC(=O)C(Cl)Cl)n2nc(C)cc2C)n1`: the TGI in [8] is 16.1 µM; in assay [1], 11 µM; in [2], 21.3 µM; in assay [3], 16.1 µM; in assay [4], 25.7 µM; in assay [5], 27.6 µM. Also, the TGI in assay [6] was greater than 100 µM; in [10], 3.69 µM; in [7], 41.3 µM.

For `COc1ccc(C2CC(c3cccc(Nc4ccncc4)c3)=NN2c2ccccc2)cc1` (stereo not given), the GI50 in assay [8] was 1.86 µM; in assay [1], 1.78 µM; in assay [2] it was 2.19 µM; in assay [3], 4.94 µM; in assay [4] it was 2.39 µM; in [5] it was 1.41 µM. Moreover, the GI50 in assay [9] was 1.55 µM; in assay [6] it was 1.87 µM; in assay [7] it was 2.2 µM. For the same molecule, the TGI in assay [8] was 3.52 µM; in assay [1], 3.49 µM; in assay [2], 4.77 µM; in assay [3], 20.6 µM; in [4] it was 5.01 µM; in assay [5], 2.92 µM. Moreover, the TGI in assay [9] is 3.02 µM; in assay [6], 4.01 µM; in assay [7], 5.79 µM.

As for `O=c1[nH]c2ccccc2c(=O)n1/N=C\c1ccccc1O`, the TGI in [8], in assay [1], in assay [3], in assay [4], in [5] and in assay [6] was greater than 100 µM throughout. Moreover, the TGI in assay [10] and in assay [7] was greater than 100 µM throughout.

Turning to `Cc1cc(C)n(C(C)(C(=O)Cc2ccccc2)n2nc(C)cc2C)n1`, the TGI in [8], in assay [1], in assay [2], in [4], in [5] and in assay [9] was greater than 100 µM each time. In addition, the TGI in assay [6], in [10] and in assay [7] was greater than 100 µM throughout.
